Experiments:
Type in all cases: physicochemical
Solubility test in water = settings: for solubility: thermodynamic from solid, in purified water, saturated state
Protocol: The salts obtained in Example 1, Comparative examples 1, 2 and 6, and the compound of formula A were tested for solubility in water, and the test method was as follows:
Test method: the samples to be tested were taken in a certain amount, gradually added to the purified water respectively, and continuously shaked until the samples reached the saturated state, the weighed amount of the samples to be tested and the used amount of the solvent were recorded, the concentrations at which the samples were dissolved were calculated, and the test results were shown in the following table: […]

[1] = Hygroscopicity / stable existence of the obtained salt solid; settings: concluding statement
Protocol: With reference to the preparation method of Example 1, the preparation of alkaline amino acid salts: lysine salt, arginine salt, and proline salt of the compound of formula A was carried out using methanol as the reaction solvent.

[2] = Stability test, accelerated test at 40° C.±2° C./75% RH±5% RH; settings: for Content (%) / Maximum single impurity (%) / Moisture (%) / Total impurity (%): 40° C.±2° C./75% RH±5% RH
Protocol: The sodium salt of the compound of formula A obtained in Example 1 (packaging conditions: low-density polyethylene bag+polyester/aluminum/polyethylene composite bag for pharmaceutical packaging) was subjected to an accelerated test at 40° C.±2° C./75% RH±5% RH, and the results were as follows: […]

## O=C(O)Cc1nn(Cc2nc3cc(C(F)(F)F)ccc3s2)c(=O)c2nccnc12 [Compound of formula A, reference compound]
Solubility test in water
  solubility: 35 µg/mL
  solubility in water (in words): insoluble in water

## O=C([O-])Cc1nn(Cc2nc3cc(C(F)(F)F)ccc3s2)c(=O)c2nccnc12.[Na+] [Example 1]
[1]
  hygroscopicity (in words): low hygroscopicity
[2]; 0 Month
  Content (%): 100.8%
  Maximum single impurity (%): 0.03%
  Moisture (%): 0.6%
  Total impurity (%): 0.40%
[2]; 1 Month
  Content (%): 99.6%
  Maximum single impurity (%): 0.03%
  Moisture (%): 0.7%
  Total impurity (%): 0.45%
[2]; 2 Month
  Content (%): 99.9%
  Maximum single impurity (%): 0.03%
  Moisture (%): 0.7%
  Total impurity (%): 0.37%
[2]; 3 Month
  Content (%): 99.6%
  Maximum single impurity (%): 0.03%
  Moisture (%): 0.8%
  Total impurity (%): 0.42%
[2]; 6 Month
  Content (%): 100.9%
  Maximum single impurity (%): 0.03%
  Moisture (%): 0.8%
  Total impurity (%): 0.54%
[2]; concluding statement
  quality stability (in words): stable quality
Solubility test in water
  solubility: 10000 µg/mL
  solubility in water (in words): good solubility

Reference: US12195471B2, “Salt of aldose reductase inhibitor, and preparation method and application thereof” (CSPC ZHONGQI PHARMACEUTICAL TECHNOLOGY (SHIJIAZHUANG) CO., …, priority 2019, dated 2025)
